We go through ten compounds from US7524639B2, “Assay for screening antipsychotic drugs” (priority 2003, dated 2009).

For data set [1] the following is noted: values from Goodman & Gilman's (Baldessarini and Tarazi 2001) or other published medical sources, cited from earlier work.
In data set [2] the target is T1, rat 5-HT2A receptor tagged with EGFP (Rattus norvegicus, UniProt P14842).
T1 construct: tagged at the C-terminus of the full-length rat 5-HT2A receptor (SR2-GFP); expressed in transfected cells; transiently transfected, differentiated N1E-115 cells (A2)
Nature of the data set: Internalization of GFP-tagged 5-HT2A receptor in SB1 cells (HEK293 stable line), confocal fluorescence microscopy. It is filed as cell-based. To be noted: drug applied for 10 mins, cycloheximide present.
Method: Generation of SR2-GFP receptor and HEK293 cells stably expressing SR2-GFP receptors: Enhanced green fluorescence protein (EGFP) had been tagged at the C-terminus of the full-length rat 5-HT2A receptor (SR2-GFP) and a stable line, SB-1, expressing fluorescent SR2-GFP receptors was established in the HEK293 cell line.
In order to study internalization of the 5-HT2A receptor in SB1 cells, cells were plated onto poly-DL-ornithine (20 μg/ml)—coated coverslip dishes and grown to 60-70% confluency. After 24 hrs in culture, cells were washed twice with serum free-DMEM to remove endogenous 5-HT present in serum. Protein synthesis was then blocked with cycloheximide at 100 μg/ml for 5 hrs to eliminate fluorescence from receptors being synthesized and present in the Golgi. […] Antipsychotics or an agonist such as serotonin (i.e. positive control) at the desired concentrations in DMEM were then applied for 10 mins. At the end of this period, cells were fixed in 4% paraformaldehyde in phosphate buffered saline (PBS) for 30 min, washed with PBS and imaged using a confocal microscope as described below.

The target of data set [3] is T1, rat 5-HT2A receptor tagged with EGFP. Nature of the data set: Internalization of GFP-tagged 5-HT2A receptor in transiently transfected, differentiated N1E-115 neuronal cells, confocal fluorescence microscopy. The class given is cell-based. As to conditions: drug applied for 10 mins, cycloheximide present.
From the text: A laser-scanning confocal microscope (Model MRC1024—BioRad) attached to a Nikon inverted microscope (Nikon eclipse TE300) and Lasersharp acquisition software were used in this case. A 60× oil immersion objective (NA=1.4) and 20× objective (NA=0.75) were used with laser power at 30% in all studies. […] Images were processed with Adobe Photoshop software using identical values for contrast and brightness. Typically 100-150 cells were randomly chosen and imaged in any one experiment and all experiments were repeated at least three times. In all experiments, cycloheximide was present until the cells were fixed. The number of cells that show internalized fluorescence and the pattern of fluoresence were estimated.
To study internalization of the 5-HT2A receptor in N1E-115 cells, undifferentiated N1E-115 cells grown on cover slip dishes cells were plated onto poly-DL-ornithine (20 μg/ml)—coated coverslip dishes and grown to 60-70% confluency. These cells were transfected with 2 μg of the SR2-GFP DNA mixed with 10 μg of lipofectamine in 1 ml OptiMEM media. 24 hrs after transfection, differentiation medium (1% DMSO+1% FBS+1% AB-AM mix in DMEM) was added in place of 10% DMEM. After 3 days, differentiated cells formed long neurites.

Read-outs that look alike come from different tables or passages of the source.

T1 sequence (P14842 whole entry): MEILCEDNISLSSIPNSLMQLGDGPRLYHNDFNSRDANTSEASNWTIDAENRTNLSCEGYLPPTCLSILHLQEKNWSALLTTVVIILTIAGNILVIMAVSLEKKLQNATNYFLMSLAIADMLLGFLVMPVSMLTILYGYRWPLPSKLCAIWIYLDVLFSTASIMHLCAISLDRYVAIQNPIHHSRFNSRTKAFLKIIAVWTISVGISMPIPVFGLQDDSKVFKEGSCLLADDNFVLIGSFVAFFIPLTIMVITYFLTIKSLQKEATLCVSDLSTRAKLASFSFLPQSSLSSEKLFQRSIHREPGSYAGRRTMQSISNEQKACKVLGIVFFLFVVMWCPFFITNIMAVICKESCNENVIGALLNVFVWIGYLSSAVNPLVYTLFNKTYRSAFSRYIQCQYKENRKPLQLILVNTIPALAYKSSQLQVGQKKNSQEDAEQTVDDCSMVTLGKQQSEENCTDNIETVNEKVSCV

`O=C(CCCN1CCC(O)(c2ccc(Cl)cc2)CC1)c1ccc(F)cc1` [Haloperidol]: the “Extrapyramidal side effects (EPS)” value in data set [1] is given as “Very high”; in data set [1] (listed as haloperidol) it was “severe”.

As for `Cc1cc2c(s1)Nc1ccccc1N=C2N1CCN(C)CC1` [Olanzapine], the “Extrapyramidal side effects (EPS)” value is on record as “Very low” in data set [1] and “negligible” in data set [1] (listed as olanzapine).

Consider `OCCN1CCN(CCCN2c3ccccc3Sc3ccc(C(F)(F)F)cc32)CC1` [Fluphenazine], for which the “Extrapyramidal side effects (EPS)” value in data set [1] is “Very high”; in data set [1] (listed as fluphenazine), “severe”.

For the compound `OCCOCCN1CCN(C2=Nc3ccccc3Sc3ccccc32)CC1` [Quitapine], the “Extrapyramidal side effects (EPS)” value in data set [1] was “Very low”.

Take `O=C1CCc2ccc(OCCCCN3CCN(c4cccc(Cl)c4Cl)CC3)cc2N1` [Aripiprazole]: in data set [2], the “Receptor internalization SB1 cells (pattern of internalization)” value (shortened to “Receptor internalization SB1 cells”) is “Type A”. The “Receptor internalization N1E-115 cells (pattern of internalization)” value (from here on “Receptor internalization N1E-115 cells”) in data set [3] was “Type A”. Also, the “Extrapyramidal side effects (EPS)” value in data set [1] was “Very low”.

`OCCN1CCN(CC/C=C2/c3ccccc3Sc3ccc(Cl)cc32)CC1` [Zuclopenthixol]: in data set [2], the “Receptor internalization SB1 cells” value is on record as “Type C”. In addition, in data set [3], the “Receptor internalization N1E-115 cells” value is on record as “Type B”. The “Extrapyramidal side effects (EPS)” value in data set [1] was “Moderate”.

Turning to `Cc1nc2n(c(=O)c1CCN1CCC(c3noc4cc(F)ccc34)CC1)CCCC2` [Risperidone], the “Extrapyramidal side effects (EPS)” value in data set [1] is recorded as “Moderate”.

Turning to `O=C1Cc2cc(CCN3CCN(c4nsc5ccccc45)CC3)c(Cl)cc2N1` [Ziprasidone], the “Receptor internalization SB1 cells” value in data set [2] is recorded as “Type B”. For the same compound, the “Receptor internalization N1E-115 cells” value in data set [3] is on record as “Type B”. The “Extrapyramidal side effects (EPS)” value in data set [1] is given as “Moderate”.

On to `CN1CCN(C2=Nc3ccccc3Oc3ccc(Cl)cc32)CC1` [Loxapine], for which, in data set [1], the “Extrapyramidal side effects (EPS)” value is on record as “Moderate”.

With `CN1CCN(C2=Nc3cc(Cl)ccc3Nc3ccccc32)CC1` [Clozapine], the figures for the “Extrapyramidal side effects (EPS)” value in data set [1] and in data set [1] (listed as clozapine) were “Very low” and “negligible”, respectively.
